Measurements from patent US10919889B2, “Chiral heterocyclic compound with hedgehog pathway antagonist activity, method and use thereof” (SUZHOU KINTOR PHARMACEUTICALS, INC., priority 2016, dated 2021).
Where two headings read alike, the source gives them in different places.

Test system: Hh signaling pathway
Assay: NIH3T3-GRE-Luc luciferase reporter assay (primary assay)
Assay type: cell-based
Excerpt: NIH3T3 cells (CRL-1658, ATCC) were maintained in DMEM (Gibico) supplemented with 10% FBS (Hyclone). GRE-Luc plasmid was generated by inserting 8×Gli-1 responsive element (GRE) into the multiple cloning site of pGL4.26 vector (Promega). NIH3T3-GRE-Luc reporter cell line was established by hygromycin (Invitrogen) selection after transfected with GRE-Luc luciferase reporter plasmid. Single clones were validated by the induction of luciferase by recombinant sonic hedgehog (sHh) protein or small molecule agonist SAG (ABIN629346). Selected clone was used to monitor the Hh signaling.
(§1) The NIH3T3-GRE-Luc cells were maintained in complete culture medium (DMEM with 4 mM L-Gln, 1.5 g/L sodium bicarbonate and 4.5 g/L glucose supplemented with 100 μg/mL hygromycin and 10% FBS). When confluent, the cells were trypsinized and re-suspended in assay medium (0.5% serum-containing DMEM). After 100 µL/well of cells suspension was added to the 96-well-plate (Final cell concentration is 15,000 cells/well), cells were cultured for additional 48 hours before adding the compounds.
Compounds were serially diluted in DMSO and further diluted with assay medium. In an embodiment, 10 nM SAG was added in assay medium as the agonist of Hh signaling. After the compounds and agonist were prepared, the medium was removed carefully. 100 μL of assay medium containing compound and agonist was added to the cell with care. Cell plates were incubated at 37° C. for additional 48 hours.
(§2) Following the 48 hours incubation, 40 μL/well of luciferase media (Brigh-Glo, Promega) was added to the cells. The plate was incubated at room temperature for 5 minutes under gentle shaking. Luminescence signal was measured with plate reader (PHERAstar FS, BMG). The potency of compounds was calculated based on the inhibition of luminescence signaling.
NIH3T3 cells (CRL-1658, ATCC) were maintained in DMEM (11965, Gibico) supplemented with 10% FBS (Hyclone). GRE-Luc plasmid was generated by cloning 8×Gli-1 responsive element (GRE) into the MCS of pGL4.26 (Promega). NIH3T3-GRE-Luc reporter cell lines were established by hygromycin (Invitrogen) selection after transfection with GRE-Luc luciferase reporter plasmid. Single clones were validated for the assay quality with N-terminal fragment of recombinant sonic hedgehog protein or small molecule agonist SAG (ABIN629346). Selected clone were used to monitor the Hh signaling.
as §1, with “ug/ml” for “μg/mL”, “resuspended” for “re-suspended”, “ul/well” for “µL/well”
Compounds were serially diluted in DMSO and further diluted with assay medium. In an embodiment, 10 nM SAG was added in assay medium as the agonist of Hh signaling. After the compounds and agonist were prepared, carefully remove medium (Aspirate the medium with pipette instead of vacuum, or else the NIH3T3 cells monolayer will be detached). 100 ul of assay medium containing compound or agonist was added to the cell with care. Cell plates were incubated at 37 degree for additional 48 hours.
as §2, with “ul/well” for “μL/well”, “min” for “minutes”, “basing” for “based”

[1] = 48 h, 10 nM SAG as agonist, 48 hours, read-out: Effect IC50 (nM)(GRE reporter assay)
[2] = IC50 of vismodegib over that of the tested compound in the same assay
[3] = IC50 value of Vismodegib over that of the tested compound in the same assay
[4] = primary assay, Table 5, read-out: SMO IC50

| IC50 [1] [nM] | IC50 [4] [nM] | IC50 (read-out: IC50 (Hh pathway)) [nM] | SMILES | Hh pathway inhibitory activity compared to compound B2 of S configuration | increase of inhibitory activity against Hedgehog pathway compared with A-55 | Ratio [2] | Ratio [3] | increase of Hh pathway inhibitory activity compared to racemic compound B (chiral compound vs racemic compound) |
| --- | --- | --- | --- | --- | --- | --- | --- | --- |
| 0.8 | 0.8 | 0.8 | Cc1cnc(-c2cc(N3CCc4nc(N5CCC(O)CC5)ncc4[C@H]3C)ncc2Cl)c(C)c1 [Compound B1, (R)-1-(6-(5′-chloro-3,5-dimethyl-[2,4′-bipyridin]-2′-yl)-5-methyl-5,6,7,8-tetrahydropyrido[4,3-d]pyrimidin-2-yl)piperidin-4-ol] | more than 20 fold | about 12 folds | 22.4 | 22.4 | about 3 fold |
| 2.7 | 2.7 | 2.7 | Cc1cnc(-c2cc(N3CCc4nc(N5CCC(O)CC5)ncc4C3C)ncc2Cl)c(C)c1 (racemic) [B] | – | – | 5.0 | 5.0 | – |
